Measured values as given in ChEMBL document CHEMBL5512607, “Journey of Von Hippel-Lindau (VHL) E3 ligase in PROTACs design: From VHL ligands to VHL-based degraders” (Eur J Med Chem, 2024).
One block for each compound: values may come before it.

Tests used:
[1] = target: T1, von Hippel-Lindau disease tumor suppressor/Estrogen receptor (Homo sapiens, UniProt P03372+P40337); assay: PROTAC activity at VHL E3 ligase/ERalpha in human MCF7 cells assessed as reduction in ERalpha protein level by Western blot analysis; assay type: cell-based
[2] = target: T1, von Hippel-Lindau disease tumor suppressor/Estrogen receptor; assay: PROTAC activity at VHL E3 ligase/ERalpha in human T47D cells assessed as maximal degradation of ERalpha protein level at 7.7 nM by Western blot analysis relative to control; assay type: cell-based
[3] = tested on: von Hippel-Lindau disease tumor suppressor/Mitogen-activated protein kinase 14; assay: PROTAC activity at VHL/N-terminal His-tagged human p38alpha expressed in […] assessed as maximal degradation relative to control
[4] = PROTAC activity at VHL/N-terminal His-tagged human p38alpha expressed in […] assessed as p38alpha degradation
[5] = target: von Hippel-Lindau disease tumor suppressor (Homo sapiens, UniProt P40337); assay: Binding affinity to VHL (unknown origin) assessed as dissociation constant by fluorescence polarization assay
Chain of von Hippel-Lindau disease tumor suppressor (P40337 whole entry, the tested form may be a part): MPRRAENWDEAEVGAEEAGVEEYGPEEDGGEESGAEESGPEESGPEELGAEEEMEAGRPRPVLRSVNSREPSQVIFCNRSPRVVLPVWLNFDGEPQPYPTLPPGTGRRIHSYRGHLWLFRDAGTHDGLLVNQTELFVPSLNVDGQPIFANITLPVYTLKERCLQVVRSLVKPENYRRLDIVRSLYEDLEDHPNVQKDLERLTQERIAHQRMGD

[6] = target: T2, Von Hippel-Lindau disease tumor suppressor/Elongin B/Elongin C (Homo sapiens, UniProt P40337); assay: Inhibition of VHL (unknown origin) (1 to 213 residues)/ElonginC/ElonginB expressed in Escherichia coli BL21 (DE3) using (FAM)-labeled HIF-1alpha peptide as substrate incubated for 2 hrs by fluorescence polarization assay
T2 sequence (P40337 whole entry, looked up, the tested form may be a part): as the sequence (P40337 whole entry, the tested form may be a part) above

[7] = target: T3, von Hippel-Lindau disease tumor suppressor/Bromodomain-containing protein 2 (Homo sapiens, UniProt P25440+P40337); assay: PROTAC activity at human VHL/BRD2 in human HeLa cells assessed as maximum degradation of BRD2 measured after 18 hrs by Western blot analysis relative to control; assay type: cell-based
[8] = target: T4, von Hippel-Lindau disease tumor suppressor/Bromodomain-containing protein 3 (Homo sapiens, UniProt Q15059+P40337); assay: PROTAC activity at human VHL/BRD3 in human HeLa cells assessed as […] incubated for 16 hrs by Western blot analysis; assay type: cell-based
Target sequence in this assay (Q15059 whole entry): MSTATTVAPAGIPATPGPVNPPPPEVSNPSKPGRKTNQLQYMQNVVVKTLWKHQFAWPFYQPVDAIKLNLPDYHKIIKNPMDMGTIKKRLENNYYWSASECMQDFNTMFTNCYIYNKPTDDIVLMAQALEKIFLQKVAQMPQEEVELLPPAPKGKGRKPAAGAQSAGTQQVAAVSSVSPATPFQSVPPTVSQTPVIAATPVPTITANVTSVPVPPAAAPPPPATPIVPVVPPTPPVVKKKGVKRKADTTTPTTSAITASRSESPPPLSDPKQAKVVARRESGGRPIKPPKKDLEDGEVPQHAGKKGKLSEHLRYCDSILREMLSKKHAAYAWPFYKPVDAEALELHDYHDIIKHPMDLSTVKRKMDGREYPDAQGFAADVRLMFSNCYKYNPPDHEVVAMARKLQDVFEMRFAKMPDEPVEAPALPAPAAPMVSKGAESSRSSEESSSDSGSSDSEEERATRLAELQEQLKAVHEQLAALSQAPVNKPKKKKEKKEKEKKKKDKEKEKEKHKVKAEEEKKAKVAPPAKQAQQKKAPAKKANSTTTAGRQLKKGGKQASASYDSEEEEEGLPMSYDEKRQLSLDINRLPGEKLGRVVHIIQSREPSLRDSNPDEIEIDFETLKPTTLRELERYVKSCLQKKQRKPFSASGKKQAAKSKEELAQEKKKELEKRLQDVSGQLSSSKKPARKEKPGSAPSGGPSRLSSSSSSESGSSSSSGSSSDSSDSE
Target sequence in this assay (P40337 whole entry): as the sequence (P40337 whole entry, the tested form may be a part) above

[9] = target: T4, von Hippel-Lindau disease tumor suppressor/Bromodomain-containing protein 3; assay: PROTAC activity at human VHL/BRD3 in human HeLa cells assessed as maximum degradation of BRD3 measured after 18 hrs by Western blot analysis relative to control; assay type: cell-based
[10] = target: T3, von Hippel-Lindau disease tumor suppressor/Bromodomain-containing protein 2; assay: PROTAC activity at human VHL/BRD2 in human HeLa cells assessed as […] incubated for 16 hrs by Western blot analysis; assay type: cell-based
Target sequence in this assay (P25440 whole entry): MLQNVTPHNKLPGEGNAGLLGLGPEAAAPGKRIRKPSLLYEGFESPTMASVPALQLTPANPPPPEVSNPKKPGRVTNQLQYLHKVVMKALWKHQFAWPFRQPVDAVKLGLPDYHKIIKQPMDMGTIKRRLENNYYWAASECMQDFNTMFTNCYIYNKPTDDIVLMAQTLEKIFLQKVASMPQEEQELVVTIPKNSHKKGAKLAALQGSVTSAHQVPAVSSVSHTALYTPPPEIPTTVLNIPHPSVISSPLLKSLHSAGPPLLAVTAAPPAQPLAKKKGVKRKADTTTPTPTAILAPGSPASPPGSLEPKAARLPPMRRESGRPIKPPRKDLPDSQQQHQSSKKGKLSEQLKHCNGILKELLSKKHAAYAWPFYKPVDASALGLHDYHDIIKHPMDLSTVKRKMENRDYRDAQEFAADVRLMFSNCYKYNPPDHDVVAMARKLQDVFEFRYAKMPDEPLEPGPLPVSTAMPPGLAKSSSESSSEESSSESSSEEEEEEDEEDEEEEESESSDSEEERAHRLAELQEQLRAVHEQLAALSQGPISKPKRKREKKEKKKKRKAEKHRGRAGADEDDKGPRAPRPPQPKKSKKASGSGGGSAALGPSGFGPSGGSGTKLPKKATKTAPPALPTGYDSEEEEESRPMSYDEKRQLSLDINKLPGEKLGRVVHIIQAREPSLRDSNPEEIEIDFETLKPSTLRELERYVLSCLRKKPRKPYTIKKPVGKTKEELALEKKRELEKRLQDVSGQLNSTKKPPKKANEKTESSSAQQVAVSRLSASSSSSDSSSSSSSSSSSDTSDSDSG
Target sequence in this assay (P40337 whole entry): as the sequence (P40337 whole entry, the tested form may be a part) above

[11] = tested on: von Hippel-Lindau disease tumor suppressor/Bromodomain-containing protein 4; assay: PROTAC activity at human VHL/BRD4 in human HeLa cells assessed as maximum degradation of BRD4 measured after 18 hrs by Western blot analysis relative to control
[12] = PROTAC activity at human VHL/BRD4 in human HeLa cells assessed as degradation of BRD4 incubated for 16 hrs by Western blot analysis
[13] = target: T2, Von Hippel-Lindau disease tumor suppressor/Elongin B/Elongin C; assay: Inhibition of VHL/Elongin B/Elogin C (unknown origin) using FAM-DEALA-Hyp-YIPD as substrate by fluorescence polarization assay; assay type: protein-complex assay
[14] = target: T5, von Hippel-Lindau disease tumor suppressor/Androgen receptor (Homo sapiens, UniProt P10275+P40337); assay: PROTAC activity at VHL/AR in human LNCaP cells assessed as maximum degradation of AR at 75 uM incubated for 16 hrs by Western blot analysis relative to control; assay type: cell-based
Target sequence in this assay (P10275 whole entry, looked up): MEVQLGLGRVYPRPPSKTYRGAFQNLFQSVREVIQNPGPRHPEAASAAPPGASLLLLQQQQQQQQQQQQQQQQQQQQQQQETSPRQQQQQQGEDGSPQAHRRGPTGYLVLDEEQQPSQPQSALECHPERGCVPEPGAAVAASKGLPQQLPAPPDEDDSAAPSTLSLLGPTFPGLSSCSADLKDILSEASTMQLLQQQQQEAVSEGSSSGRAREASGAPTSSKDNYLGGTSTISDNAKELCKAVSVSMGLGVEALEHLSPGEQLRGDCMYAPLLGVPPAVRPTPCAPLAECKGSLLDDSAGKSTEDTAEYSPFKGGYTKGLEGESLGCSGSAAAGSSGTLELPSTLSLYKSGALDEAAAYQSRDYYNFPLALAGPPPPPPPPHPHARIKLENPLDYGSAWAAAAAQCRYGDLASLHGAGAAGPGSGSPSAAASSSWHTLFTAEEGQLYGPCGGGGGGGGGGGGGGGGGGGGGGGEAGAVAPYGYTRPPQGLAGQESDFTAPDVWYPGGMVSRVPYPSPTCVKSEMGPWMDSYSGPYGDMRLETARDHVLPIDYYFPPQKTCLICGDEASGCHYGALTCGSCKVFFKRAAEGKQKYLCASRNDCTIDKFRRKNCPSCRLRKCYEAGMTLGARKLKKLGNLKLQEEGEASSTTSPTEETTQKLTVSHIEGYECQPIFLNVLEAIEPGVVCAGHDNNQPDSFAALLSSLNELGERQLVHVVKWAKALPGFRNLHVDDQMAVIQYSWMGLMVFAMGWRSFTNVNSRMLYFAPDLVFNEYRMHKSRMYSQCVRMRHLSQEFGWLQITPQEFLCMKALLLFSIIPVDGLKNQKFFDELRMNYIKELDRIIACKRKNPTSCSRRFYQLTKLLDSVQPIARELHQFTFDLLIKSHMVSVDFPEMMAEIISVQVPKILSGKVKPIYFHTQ
Target sequence in this assay (P40337 whole entry, looked up): as the sequence (P40337 whole entry, the tested form may be a part) above

[15] = target: T5, von Hippel-Lindau disease tumor suppressor/Androgen receptor; assay: PROTAC activity at VHL/AR in human LNCaP cells assessed as induction of AR degradation by Western blot analysis; assay type: cell-based
Target sequence in this assay (P10275 whole entry): as the sequence (P10275 whole entry, looked up) above
Target sequence in this assay (P40337 whole entry): as the sequence (P40337 whole entry, the tested form may be a part) above

[16] = target: T6, von Hippel-Lindau disease tumor suppressor/Epidermal growth factor receptor (Homo sapiens, UniProt P00533+P40337); assay: PROTAC activity at VHL/EGFR Ex20ins mutant in human HeLa cells assessed as protein degradation incubated for 24 hrs by immunoblot analysis; assay type: cell-based
[17] = tested on: von Hippel-Lindau disease tumor suppressor/Epidermal growth factor receptor (Homo sapiens), P00533+P40337 [UNDEFINED MUTATION]; assay: PROTAC activity at VHL/EGFR Ex20ins mutant in human HeLa cells assessed as maximal degradation incubated for 24 hrs by immunoblot analysis relative to control; assay type: cell-based
[18] = target: T6, von Hippel-Lindau disease tumor suppressor/Epidermal growth factor receptor; assay: PROTAC activity at VHL/wild type EGFR in human OVCAR-8 cells assessed as maximal degradation incubated for 24 hrs by immunoblot analysis relative to control; assay type: cell-based
[19] = target: T6, von Hippel-Lindau disease tumor suppressor/Epidermal growth factor receptor; assay: PROTAC activity at VHL/wild type EGFR in human OVCAR-8 cells assessed as protein degradation incubated for 24 hrs by immunoblot analysis; assay type: cell-based
[20] = target: T5, von Hippel-Lindau disease tumor suppressor/Androgen receptor; assay: PROTAC activity at VHL/AR in human VCaP cells assessed as induction of AR degradation by Western blot analysis; assay type: cell-based
Target sequence in this assay (P10275 whole entry): as the sequence (P10275 whole entry, looked up) above
Target sequence in this assay (P40337 whole entry): as the sequence (P40337 whole entry, the tested form may be a part) above

[21] = target: T5, von Hippel-Lindau disease tumor suppressor/Androgen receptor; assay: PROTAC activity at VHL/AR-V7 in human 22Rv1 cells assessed as induction of AR degradation by Western blot analysis; assay type: cell-based
[22] = target: von Hippel-Lindau disease tumor suppressor/Bromodomain-containing protein 4 (Homo sapiens, UniProt O60885+P40337); assay: PROTAC activity at human VHL/BRD4 in human HeLa cells assessed as degradation of BRD4 incubated for 24 hrs by Western blot analysis; assay type: cell-based
[23] = tested on: von Hippel-Lindau disease tumor suppressor/Bromodomain-containing protein 4; assay: PROTAC activity at VHL/BRD4 in human VCaP cells assessed as maximum degradation of BRD4 by Western blot analysis relative to control
[24] = target: T3, von Hippel-Lindau disease tumor suppressor/Bromodomain-containing protein 2; assay: PROTAC activity at VHL/BRD2 in human 22Rv1 cells assessed as induction of BRD2 degradation by Immunoblot analysis; assay type: cell-based
Target sequence in this assay (P25440 whole entry): as the sequence (P25440 whole entry) above
Target sequence in this assay (P40337 whole entry): as the sequence (P40337 whole entry, the tested form may be a part) above

[25] = target: T4, von Hippel-Lindau disease tumor suppressor/Bromodomain-containing protein 3; assay: PROTAC activity at VHL/BRD3 in human 22Rv1 cells assessed as induction of BRD3 degradation by Immunoblot analysis; assay type: cell-based
Target sequence in this assay (Q15059 whole entry): as the sequence (Q15059 whole entry) above
Target sequence in this assay (P40337 whole entry): as the sequence (P40337 whole entry, the tested form may be a part) above

[26] = target: von Hippel-Lindau disease tumor suppressor/Bromodomain-containing protein 4; assay: PROTAC activity at VHL/BRD4 in human 22Rv1 cells assessed as induction of BRD4 degradation by Immunoblot analysis
[27] = tested on: CWR22R; assay: Antiproliferative activity against human 22Rv1 cells assessed as reduction in cell viability incubated for 48 hrs by MTT assay; assay type: functional, cell-based; details: 22Rv1, 48 h

- DC50 [1]: 10 nM
- Emax [2]: > 95%
SMILES: Cc1ncsc1-c1ccc([C@H](C)NC(=O)[C@@H]2C[C@@H](O)CN2C(=O)[C@@H](NC(=O)CCCCOc2ccc(/C=C/NC(=O)c3ccc(C(=O)c4c(-c5ccc(O)cc5)sc5cc(O)ccc45)cc3)cc2)C(C)(C)C)cc1

- IC50 [6]: 10100 nM
SMILES: Cc1ncsc1-c1ccc(CNC(=O)[C@@H]2C[C@@H](O)CN2C(=O)c2cccc(N)c2C)cc1

- Emax [7]: 98%
- DC50 [8]: 100 nM
- Emax [9]: 100%
- DC50 [10]: 40 nM
- Emax [11]: 100%
- DC50 [12]: 3 nM
SMILES: Cc1ncsc1-c1ccc([C@H](C)NC(=O)[C@H]2C[C@H](O)CN2C(=O)[C@H](NC(=O)COCCOCCOCCNC(=O)C[C@@H]2N=C(c3ccc(Cl)cc3)c3c(sc(C)c3C)-n3c(C)nnc32)C(C)(C)C)cc1

- Kd [5]: 149 nM
SMILES: Cc1cc(-c2scnc2C)ccc1CNC(=O)[C@@H]1C[C@@H](O)CN1C(=O)[C@H](NC(=O)C1(C#N)CC1)C(C)(C)C

- DC50 [20]: 2000 nM
- DC50 [21]: 370 nM
SMILES: Cc1ncsc1-c1ccc([C@@H](C)NC(=O)[C@H]2C[C@H](O)CN2C(=O)[C@H](NC(=O)CCCCCNC(=O)COc2ccccc2-c2csc(N3CCOCC3)n2)C(C)(C)C)cc1

- Kd [5]: 186 nM
SMILES: Cc1ncsc1-c1ccc([C@H](C)NC(=O)[C@@H]2C[C@@H](O)CN2C(=O)[C@H](NC(=O)C2(C#N)CC2)C(C)(C)C)cc1F

- Emax [23]: > 99%
- DC50 [24]: < 5 nM
- DC50 [25]: < 5 nM
- DC50 [26]: < 5 nM
SMILES: Cc1ncsc1-c1ccc([C@H](C)NC(=O)[C@@H]2C[C@@H](O)CN2C(=O)[C@@H](NC(=O)COCCOCCOCCNC(=O)C[C@@H]2N=C(c3ccc(Cl)cc3)c3c(sc(C)c3C)-n3c(C)nnc32)C(C)(C)C)cc1
- EC50 [27]: 90 nM

The remaining lines, values behind:

SMILES: COc1cc2c(Oc3ccc(NC(=O)C4(C(=O)Nc5ccc(F)cc5)CC4)cc3F)ccnc2cc1OCCCCOCCCCOCC(=O)N[C@@H](C(=O)N1C[C@H](O)C[C@H]1C(=O)NCc1ccc(-c2scnc2C)cc1)C(C)(C)C
- Emax [3]: 97.4%
- DC50 [4]: 7.16 nM

SMILES: Cc1ncsc1-c1ccc([C@H](C)NC(=O)[C@@H]2C[C@@H](O)CN2C(=O)[C@H](NC(=O)C2(F)CC2)C(C)(C)C)cc1F
- Kd [5]: 73 nM

SMILES: O=C(NCc1ccc(Cl)cc1)[C@@H]1C[C@@H](O)CN1C(=O)c1ccccc1Cl
- IC50 [13]: 52000 nM

SMILES: Cc1cc([C@H](C(=O)N2C[C@H](S(=O)(=O)F)C[C@H]2C(=O)N[C@@H](CC(=O)N2CCC(C#Cc3ccc(C(=O)N[C@H]4C(C)(C)[C@H](Oc5ccc(C#N)c(C(F)(F)F)c5)C4(C)C)cc3)CC2)c2ccc(-c3scnc3C)cc2)C(C)C)on1
- Emax [14]: 54%
- DC50 [15]: 527 nM

SMILES: Cc1ncsc1-c1ccc(CNC(=O)[C@@H]2C[C@@H](O)CN2C(=O)[C@H](NC(=O)COCCOCCOc2ccc(-c3ccc4ncnc(Nc5ccc(OCc6cccc(F)c6)c(Cl)c5)c4c3)cc2)C(C)(C)C)cc1
- DC50 [16]: 736 nM
- Emax [17]: 68.8%
- Emax [18]: 97.6%
- DC50 [19]: 39.2 nM

SMILES: CC(=O)N[C@H](C(=O)N1C[C@H](O)[C@@H](F)[C@H]1C(=O)Nc1ccc(-c2scnc2C)cc1)C(C)(C)C
- DC50 [22]: 10 nM

SMILES: Cc1cc([C@H](C(=O)N2C[C@H](S(=O)(=O)F)C[C@H]2C(=O)N[C@@H](CC(=O)N2CCC(C#Cc3ccc(C(=O)N[C@H]4C(C)(C)[C@H](Oc5ccc(C#N)c(Cl)c5)C4(C)C)cc3)CC2)c2ccc(-c3scnc3C)cc2)C(C)C)on1
- Emax [14]: 59%
- DC50 [15]: 212 nM

SMILES: COc1cc(-c2scnc2C)cc(OC)c1CNC(=O)[C@@H]1C[C@@H](O)CN1C(=O)[C@H](NC(=O)C1(C#N)CC1)C(C)(C)C
- Kd [5]: 6240 nM
